The values that follow come from patent US10799536B2, “Method of treating multiple myeloma using natural killer cells expressing a chimeric antigen receptor for CD38” (Onkimmune Limited, priority 2016, dated 2020).

One data set relates to LIR2 gene. The experiment in a line: gRNA cleavage in K562 cells, T7E1 mismatch detection assay. It counts as cell-based, human. Particulars: FIG. 6. The procedure:
(§1) Cells having inhibitory receptor function removed were prepared as follows. gRNA constructs were designed and prepared to target genes encoding the ‘classical’ inhibitory receptor LIR2 and the ‘checkpoint’ inhibitory receptor CTLA4 in the human genome of NK cells. CRISPR/Cas9 genome editing was then used to knock out the LIR2 and CTLA4 target genes.
(§2) Two gRNA candidates were selected for each target gene and their cleavage efficacies in K562 cells determined.
(§3) K562 cells were transfected with the prepared gRNA constructs (FIG. 5) and subsequently harvested for PCR amplification. The presence of GFP expression was used to report successful incorporation of the gRNA construct into the K562 cells. This confirmed expression of the Cas9 gene and therefore the ability to knock out expression of the LIR2 and CTLA4 genes. The cleavage activity of the gRNA constructs was determined using an in vitro mismatch detection assay. T7E1 endonuclease I recognizes and cleaves non-perfectly matched DNA, allowing the parental LIR2 and CTLA4 genes to be compared to the mutated genes following CRISPR/Cas9 transfection and non-homologous end joining (NHEJ).
The three bands corresponding to each mutation relate to the parental gene (601) and the two resulting strands following detection of a mismatch in the DNA sequence after transfection (602 and 603).

The subject of another data set is CTLA4 gene. The description is as above. It counts as cell-based, human. Particulars: FIG. 7. As for the experimental part: as §1, §2, §3
A further data set concerns the target DR4 (Homo sapiens, UniProt O00220). Particulars: surface plasmon resonance; WO 2009/077857; cited from earlier work.
Another data set deals with T1, decoy receptor DcR1 (Homo sapiens, UniProt O14798).
T1 sequence (O14798 26-236): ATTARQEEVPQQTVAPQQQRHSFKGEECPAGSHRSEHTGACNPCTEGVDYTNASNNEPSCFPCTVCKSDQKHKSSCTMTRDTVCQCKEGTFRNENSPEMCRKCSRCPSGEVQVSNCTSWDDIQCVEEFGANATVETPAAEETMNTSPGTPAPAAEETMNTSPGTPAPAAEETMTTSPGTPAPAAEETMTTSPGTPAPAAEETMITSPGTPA
Particulars: surface plasmon resonance; WO 2009/077857; cited from earlier work.

In data set [1] the test system is DR5. Particulars: for DR5 expression, MFI: 24 hours, FIG. 20. The text has this: Bortezomib was bought from Millennium Pharmaceuticals.
Data set [2] concerns the target DR5 (Homo sapiens, UniProt O14763). Particulars: D269H/E195R mutation, relative to wildtype TRAIL; cited from earlier work.
Data set [3] relates to decoy receptors (DcR1 and DcR2). The settings on record: D269H/E195R mutation, relative to wildtype TRAIL; cited from earlier work.

Read-outs that look alike come from different tables or passages of the source.

For “g18 gRNA: gRNA targeting hLIR2, CGAATCGCAGGTGGTCGCACAGG (SEQ ID NO: 25) (listed as DNA, chemistry not fully specified; listed as Homo sapiens)”, in the data set with LIR2 gene, the “success rate of transfection (LIR2 knockout)” value is 10%.

“g9 gRNA: gRNA targeting hLIR2, GAGTCACAGGTGGCATTTGGCGG (SEQ ID NO: 24) (listed as DNA, chemistry not fully specified; listed as Homo sapiens)”: the “success rate of transfection (LIR2 knockout)” value in the data set with LIR2 gene is given as 11%.

As to “g15 gRNA: gRNA targeting hCTLA4, CCTTGTGCCGCTGAAATCCAAGG (SEQ ID NO: 27) (listed as DNA, chemistry not fully specified; listed as Homo sapiens)”, the “success rate of transfection (CTLA4 knockout)” value with CTLA4 gene is reported as 26%.

Regarding “g7 gRNA: gRNA targeting hCTLA4, CACTCACCTTTGCAGAAGACAGG (SEQ ID NO: 26) (listed as DNA, chemistry not fully specified; listed as Homo sapiens)”, in the data set on CTLA4 gene, the “success rate of transfection (CTLA4 knockout)” value was 32%.

Regarding “Wildtype TRAIL: TNF-related apoptosis-inducing ligand, wild-type protein”, the Kd with DR4 is more than 2 nM; with decoy receptor DcR1, more than 20 nM.

As to `CC(C)C[C@H](NC(=O)[C@H](Cc1ccccc1)NC(=O)c1cnccn1)B(O)O` [Bortezomib], the “DR5 expression, MFI” value in the data set on DR5 [1] (MM1.S cells, 2.5 nm of Bortezomib, untreated MFI 214) was determined as 662; with DR5 [1] (RPMI 8226 cells, 10 nm Bortezomib, untreated MFI 273), 679. Besides, the “DR5 expression at high doses” value in the data set with DR5 [1] (high doses of Bortezomib) is “could not be upregulated”.

B1: TRAIL variant: TRAIL variant of WO 2009/077857, wildtype TRAIL gene containing the D269H/E195R mutation (protein)
chain: MAMMEVQGGPSLGQTCVLIVIFTVLLQSLCVAVTYVYFTNELKQMQDKYSKSGIACFLKEDDSYWDPNDEESMNSPCWQVKWQLRQLVRKMILRTSEETISTVQEKQQNISPLVRERGPQRVAAHITGTRGRSNTLSSPNSKNEKALGRKINSWESSRSGHSFLSNLHLRNGELVIHEKGFYYIYSQTYFRFQERIKENTKNDKQMVQYIYKYTSYPDPILLMKSARNSCWSKDAEYGLYSIYQGGIFELKENDRIFVSVTNEHLIDMHHEASFFGAFLVG
With B1, in the data set with DR5 [2], the “affinity of the TRAIL variant for DR5” value was “significantly increases”. In data set [3], the “affinity for both decoy receptors (DcR1 and DcR2)” value is on record as “reducing”.
